Experiments:
[1] = tested on: T47D (PI3Kα-H1047R) cell line; experiment: HTRF phospho-AKT(S473) cell assay in T47D cells; format: cell-based, human
Method in brief: (§1)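 Cells plated overnight (T47D in RPMI/10% FBS/0.2 units/mL insulin; SKBR3 in McCoy's 5A/10% FBS), then given 12-point 1:3 compound series (top 5 μM T47D, 10 μM SKBR3; ≤0.5% DMSO) for 2 h at 37° C. SKBR3 stimulated with 70 ng/ml PDGF-BB for final 15 min. Lysate pAKT(S473) by HTRF; IC50 calculated.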

[2] = tested on: SKBR3 (PI3Kα-Wild Type) cell line; experiment: HTRF phospho-AKT(S473) cell assay in SKBR3 cells; format: cell-based, human
Method in brief: as §1

[3] = Homo sapiens; T47D (PI3Kα-H1047R) cells, HTRF phospho-AKT(S473), 2 hours compound incubation
[4] = Homo sapiens, SK-BR-3; SKBR3 (PI3Kα-Wild Type) cells, HTRF phospho-AKT(S473), 2 hours compound incubation, PDGF-BB stimulated
[5] = Homo sapiens; HTRF phospho-AKT(S473), T47D (PI3Kα-H1047R) cells, 2 hours compound incubation
[6] = Homo sapiens, SK-BR-3; HTRF phospho-AKT(S473), SKBR3 (PI3Kα-Wild Type) cells, 2 hours compound incubation, PDGF-BB stimulated

Row | SMILES | IC50 [1, 3] [µM] | IC50 [2, 4] [µM] | IC50 [1, 5] [µM] | IC50 [2, 6] [µM]
1 | Cc1cc([C@@H](C)Nc2ccc(Cl)nc2C(=O)NS(C)(=O)=O)c2nc(N3CCN(c4ncc(C#N)cn4)CC3)n(C)c(=O)c2c1 [Compound 531, (R)-6-chloro-3-((1-(2-(4-(5-cyanopyrimidin-2-yl)piperazin-1-yl)-3,6-dimethyl-4-oxo-3,4-dihydroquinazolin-8-yl)ethyl)amino)-N-(methylsulfonyl) picolinamide] | – | – | < 0.25 | 1 to 5
2 | Cc1cc([C@@H](C)Nc2ccc(Cl)nc2C(=O)NS(C)(=O)=O)c2nc(N3CC[C@H](c4ccnc(C)c4)C3)n(C)c(=O)c2c1 (relative stereo) [Compound 769, 6-chloro-3-(((R)-1-(3,6-dimethyl-2-((R*)-3-(2-methylpyridin-4-yl)pyrrolidin-1-yl)-4-oxo-3,4-dihydroquinazolin-8-yl)ethyl)amino)-N-(methylsulfonyl) picolinamide] | – | – | < 0.25 | 1 to 5
3 | Cc1cc([C@@H](C)Nc2ccc(Cl)nc2C(=O)NS(C)(=O)=O)c2nc(N3CCC(C)(c4c(F)cnn4C)CC3)n(C)c(=O)c2c1 [Compound 407, (R)-6-chloro-3-((1-(2-(4-(4-fluoro-1-methyl-1H-pyrazol-5-yl)-4-methylpiperidin-1-yl)-3,6-dimethyl-4-oxo-3,4-dihydroquinazolin-8-yl)ethyl)amino)-N-(methylsulfonyl) picolinamide] | 0.25 to 0.5 | ≥ 5 | – | –
4 | Cc1cc([C@@H](C)Nc2ccc(Cl)nc2C(=O)NS(C)(=O)=O)c2nc(N3CCN(c4cc[nH]n4)CC3)n(C)c(=O)c2c1 [Compound 204, (R)-3-((1-(2-(4-(1H-pyrazol-3-yl)piperazin-1-yl)-3,6-dimethyl-4-oxo-3,4-dihydroquinazolin-8-yl)ethyl)amino)-6-chloro-N-(methylsulfonyl) picolinamide] | < 0.25 | 1 to 5 | – | –
5 | Cc1cc([C@@H](C)Nc2ccc(Cl)nc2C(=O)NS(C)(=O)=O)c2nc(-c3ccc(O[C@@H]4CCN(C)CC4(F)F)nc3)n(C)c(=O)c2c1 [Compound 244, 6-chloro-3-(((R)-1-(2-(6-(((R)-3,3-difluoro-1-methylpiperidin-4-yl)oxy)pyridin-3-yl)-3,6-dimethyl-4-oxo-3,4-dihydroquinazolin-8-yl)ethyl)amino)-N-(methylsulfonyl) picolinamide] | < 0.25 | 1 to 5 | – | –
6 | Cc1cc([C@@H](C)Nc2ccc(Cl)nc2C(=O)NS(C)(=O)=O)c2nc(N3CCC4(CCCCOC4)CC3)n(C)c(=O)c2c1 [Compound 328, (R)-6-chloro-3-((1-(3,6-dimethyl-4-oxo-2-(8-oxa-3-azaspiro[5.6]dodecan-3-yl)-3,4-dihydroquinazolin-8-yl)ethyl)amino)-N-(methylsulfonyl) picolinamide] | 0.25 to 0.5 | ≥ 5 | – | –
7 | Cc1cc([C@@H](C)Nc2ccc(Cl)nc2C(=O)NS(C)(=O)=O)c2nc(N3[C@@H]4CC[C@H]3C[C@@H](n3cc(C)cn3)C4)n(C)c(=O)c2c1 [Compound 482, 6-chloro-3-(((R)-1-(3,6-dimethyl-2-((1R,3R,5S)-3-(4-methyl-1H-pyrazol-1-yl)-8-azabicyclo[3.2.1]octan-8-yl)-4-oxo-3,4-dihydroquinazolin-8-yl)ethyl)amino)-N-(methylsulfonyl) picolinamide] | – | – | < 0.25 | 1 to 5
8 | Cc1cc([C@@H](C)Nc2ccc(Cl)nc2C(=O)NS(C)(=O)=O)c2nc(N3C[C@@H]4[C@H](C3)[C@H]4c3ccc(C#N)cn3)n(C)c(=O)c2c1 [Compound 392, 6-chloro-3-(((R)-1-(2-((1R,5S,6R)-6-(5-cyanopyridin-2-yl)-3-azabicyclo[3.1.0]hexan-3-yl)-3,6-dimethyl-4-oxo-3,4-dihydroquinazolin-8-yl)ethyl)amino)-N-(methylsulfonyl) picolinamide] | 0.25 to 0.5 | 1 to 5 | – | –

Further lines, results first:

Row | IC50 [1, 3] [µM] | IC50 [2, 4] [µM] | IC50 [1, 5] [µM] | IC50 [2, 6] [µM] | SMILES
9 | < 0.25 | 1 to 5 | – | – | Cc1cc([C@@H](C)Nc2ccc(Cl)nc2C(=O)NS(C)(=O)=O)c2nc(N3C[C@@H]4[C@H](C3)[C@H]4c3ccnc(C)c3)n(C)c(=O)c2c1 [Compound 384, 6-chloro-3-(((R)-1-(3,6-dimethyl-2-((1R,5S,6S)-6-(2-methylpyridin-4-yl)-3-azabicyclo[3.1.0]hexan-3-yl)-4-oxo-3,4-dihydroquinazolin-8-yl)ethyl)amino)-N-(methylsulfonyl) picolinamide]
10 | – | – | < 0.25 | 1 to 5 | CCn1c(-c2ccc3nn(C)cc3c2)nc2c([C@@H](C)Nc3ccc(Cl)nc3C(=O)NS(C)(=O)=O)cc(C)cc2c1=O [Compound 812, (R)-6-chloro-3-((1-(3-ethyl-6-methyl-2-(2-methyl-2H-indazol-5-yl)-4-oxo-3,4-dihydroquinazolin-8-yl)ethyl)amino)-N-(methylsulfonyl) picolinamide]
11 | – | – | < 0.25 | 1 to 5 | Cc1cc([C@@H](C)Nc2ccc(Cl)nc2C(=O)NS(C)(=O)=O)c2nc(-c3cc(F)c4nn(C)cc4c3)n(C)c(=O)c2c1 [Compound 788, (R)-6-chloro-3-((1-(2-(7-fluoro-2-methyl-2H-indazol-5-yl)-3,6-dimethyl-4-oxo-3,4-dihydroquinazolin-8-yl)ethyl)amino)-N-(methylsulfonyl) picolinamide]
12 | 0.25 to 0.5 | 1 to 5 | – | – | Cc1cc([C@@H](C)Nc2ccc(Cl)nc2C(=O)NS(C)(=O)=O)c2nc(N3CCC(c4cnc(C(F)F)cn4)CC3)n(C)c(=O)c2c1 [Compound 428, (R)-6-chloro-3-((1-(2-(4-(5-(difluoromethyl)pyrazin-2-yl)piperidin-1-yl)-3,6-dimethyl-4-oxo-3,4-dihydroquinazolin-8-yl)ethyl)amino)-N-(methylsulfonyl) picolinamide]
13 | – | – | < 0.25 | ≥ 5 | Cc1cc([C@@H](C)Nc2ccc(Cl)nc2C(=O)NS(C)(=O)=O)c2nc(-c3ccc([C@@H]4CN(C)CCO4)cc3)n(C)c(=O)c2c1 (relative stereo) [Compound 803, 6-chloro-3-(((R)-1-(3,6-dimethyl-2-(4-((R*)-4-methylmorpholin-2-yl)phenyl)-4-oxo-3,4-dihydroquinazolin-8-yl)ethyl)amino)-N-(methylsulfonyl) picolinamide]
14 | – | – | 0.25 to 0.5 | 1 to 5 | Cc1cc([C@@H](C)Nc2ccc(Cl)nc2C(=O)NS(C)(=O)=O)c2nc(N3CCN(c4nc(C)ncc4Cl)CC3)n(C)c(=O)c2c1 [Compound 727, (R)-6-chloro-3-((1-(2-(4-(5-chloro-2-methylpyrimidin-4-yl)piperazin-1-yl)-3,6-dimethyl-4-oxo-3,4-dihydroquinazolin-8-yl)ethyl)amino)-N-(methylsulfonyl) picolinamide]
15 | < 0.25 | 1 to 5 | – | – | COc1cc(C2CCN(c3nc4c([C@@H](C)Nc5ccc(Cl)nc5C(=O)NS(C)(=O)=O)cc(C)cc4c(=O)n3C)CC2)n(C)n1 [Compound 325, (R)-6-chloro-3-((1-(2-(4-(3-methoxy-1-methyl-1H-pyrazol-5-yl)piperidin-1-yl)-3,6-dimethyl-4-oxo-3,4-dihydroquinazolin-8-yl)ethyl)amino)-N-(methylsulfonyl) picolinamide]
16 | < 0.25 | 1 to 5 | – | – | Cc1cc([C@@H](C)Nc2ccc(Cl)nc2C(=O)NS(C)(=O)=O)c2nc(C3CCN(c4cnn(C)c4)CC3)n(C)c(=O)c2c1 [Compound 227, (R)-6-chloro-3-((1-(3,6-dimethyl-2-(1-(1-methyl-1H-pyrazol-4-yl)piperidin-4-yl)-4-oxo-3,4-dihydroquinazolin-8-yl)ethyl)amino)-N-(methylsulfonyl) picolinamide]

From US12281122B1, “PI3K inhibitors” (Cogent Biosciences, Inc., priority 2023, dated 2025)
